Reference: publication PMC9977398, “Next-generation membrane-active glycopeptide antibiotics that also inhibit bacterial cell division” (Chemical Science, 2023)
Values after ≈ are worked out from the molar mass of the structure shown. Read-outs that look alike come from different tables or passages of the source.

Tests used:
[1] = tested on: stationary phase cells of MRSA; test: Antibacterial activity against stationary phase bacteria; format: cell-based, S. aureus; details: for time to complete eradication: stationary phase MRSA
Procedure: The stationary phase cells and persister cells are metabolically repressed and phenotypically different from the log-phase cells.[27] For activity, the commonly used drugs, vancomycin, and linezolid require actively ongoing cellular processes. They are therefore ineffective against non-dividing bacteria. […] The integrity of the bacterial membrane is imperative to survival irrespective of metabolic state. […] It completely eradicated cells in 24 h at 10 μM and within 6 h at 20 μM. […]
Antibacterial activity against stationary phase bacteria
MRSA ATCC 33591 was grown to mid-log phase at 37 °C. The bacterial suspension was diluted 1000-fold in nutrient media and allowed to reach stationary phase in 16 h. The bacterial suspension was diluted and spot-plated to determine the bacterial count. The 16 h growth culture was diluted to ~10^6 CFU/mL in PBS. 150 μL of this bacterial suspension was then incubated with 50 μL of test compounds in a 96 well-plate. The compound and bacteria were then incubated at 37 °C for 2h. The suspension was serially diluted 10 fold and spot-plated on […]. The viable bacteria were then counted after 48 h incubation at 37 °C. The results represented are the average of two independent experiments carried in duplicates. […]

MRSA = test: Membrane permeabilization assay, propidium iodide uptake; format: cell-based, S. aureus
Procedure: The kinetics of permeabilization of membranes of MRSA and B. subtilis by the compounds was measured by the uptake of propidium iodide (PI). […] When the membrane integrity is compromised, it enters the cell and fluoresces upon binding to the DNA. Both VanQbiph (4) and VanQAmC10 (8) permeabilized the membrane in a concentration-dependent manner (Fig. S2 ^†). […] They caused gradual permeabilization against the stationary phase cells of MRSA as well (Fig. 2F). The extent of permeabilization was higher for VanQAmC10 (8) than VanQbiph (4) against both the log-phase and stationary-phase bacteria similar to that observed during depolarisation.
50 μL of serially diluted compound was added into 96 well microtiter plates. Freshly drawn, heparanized human blood was centrifuged down to obtain the erythrocytes and re-suspended to 5 vol % in PBS (pH 7.4). 150 μL of the erythrocyte suspension was added to the serially diluted compounds (from 500 µM to 2 µM). One set without compound and other with 50 μL of 1 vol % solution of Triton X-100 were kept as controls. […] 100 μL of the supernatant from each well were transferred into fresh microtiter plates, and A540 was measured.
% haemolysis = (A - A0)/(Atotal -A0) × 100, where A is the absorbance of the test well, A 0 the absorbance of the negative controls (without compound), and A total the absorbance of 100 % hemolysis wells (with Triton X -100), all at 540 nm. […]
2 h post incubation with dye, the absorbance was measured at 570 nm using 600 nm as […]
The bactericidal activity of the compounds was evaluated with the time kill kinetics assay.
MRSA ATCC 33591 cells were cultured in nutrient media at 37°C for 6 h. […] The bacterial colonies were counted and results are represented in logarithmic scale, i.e. log10 (CFU/mL). […]
were added to it the wells containing bacterial suspension. Fluorescence has monitored at excitation wavelength of 535 nm (slit width: 10 nm) and emission wavelength of 617 nm (slit width: 5 nm). As a measure of inner membrane permeabilization the uptake of PI was monitor by the increase in fluorescence for 30-50 min. […]

B. subtilis 168 = test: Determination of MIC against B. subtilis; format: cell-based; details: read-out: MIC against B. subtilis
Procedure: Determination of MIC against B. subtilis
Overnight cultures of B. subtilis 168 were grown in 50 mL flasks in 5 mL BMM media. The bacteria in the mid-log phase were then incubated with compounds for 18 h at 37 ̊C in BMM media. The MIC was determined as the lowest concentration at which no visible bacterial OD […]
Overnight bacterial cultures were inoculated in BMM and allowed to grow to an OD 500 of 0.35. 200 µL of the bacterial culture were incubated with compounds at 37 ̊C for 15 minutes. […]
BAC Light assay or pore formation assay
0.35. 500 µL of the bacteria was then incubated with the compounds at their respective PECSs for 10 mins in the same media at 37 ̊C. The compound was then centrifuged at 13200 rpm and […]

Compound | time to complete eradication ([1]; 10 μM) [h] | time to complete eradication ([1]; 20 μM) | time to membrane permeabilization (MRSA; exponentially growing MRSA, 10 μM, PI uptake) [min] | MIC (B. subtilis 168; Bacillus subtilis, 168, 18 h) [µM] | effect on viable stationary phase cells ([1]; 40 μM, 24 h) | effect on membrane integrity (PI uptake) (MRSA) | MIC (B. subtilis 168; Bacillus subtilis, 168, BMM media, 18 h) [µM]
CCCCCCCCCCNC(=O)C[N+](C)(C)CCCNC(=O)C1NC(=O)C2NC(=O)C(NC(=O)C3NC(=O)C(CC(N)=O)NC(=O)C(NC(=O)C(CC(C)C)NC)C(O)c4ccc(c(Cl)c4)Oc4cc3cc(c4OC3OC(CO)C(O)C(O)C3OC3CC(C)(N)C(O)C(C)O3)Oc3ccc(cc3Cl)C2O)c2ccc(O)c(c2)-c2c(O)cc(O)cc21 (stereo not shown) [VanQAmC10 (8)] | 24 | up to 6 h | ≤ 4 | 0.25 | – | – | –
CN[C@H](CC(C)C)C(=O)N[C@H]1C(=O)N[C@@H](CC(N)=O)C(=O)N[C@H]2C(=O)N[C@H]3C(=O)N[C@H](C(=O)N[C@H](C(=O)O)c4cc(O)cc(O)c4-c4cc3ccc4O)[C@H](O)c3ccc(c(Cl)c3)Oc3cc2cc(c3O[C@@H]2O[C@H](CO)[C@@H](O)[C@H](O)[C@H]2O[C@H]2C[C@](C)(N)[C@H](O)[C@H](C)O2)Oc2ccc(cc2Cl)[C@H]1O [Vancomycin, reference compound] | – | – | – | 0.2 (≈ 0.29 µg/mL) | did not reduce the number of viable stationary phase cells | does not affect the membrane integrity | –
CNC(CC(C)C)C(=O)NC1C(=O)NC(CC(N)=O)C(=O)NC2C(=O)NC3C(=O)NC(C(=O)NC(C(=O)NCCC[N+](C)(C)Cc4ccc(-c5ccccc5)cc4)c4cc(O)cc(O)c4-c4cc3ccc4O)C(O)c3ccc(c(Cl)c3)Oc3cc2cc(c3OC2OC(CO)C(O)C(O)C2OC2CC(C)(N)C(O)C(C)O2)Oc2ccc(cc2Cl)C1O (stereo not shown) [VanQbiph (4)] | – | 24 h | – | – | – | slower permeabilization | 0.15
